{"source": "patent US20070254312A1", "about": "“Protein Kinase Inhibitors and Methods for Identiying Same” (priority 2004, published 2007)", "key": {"PKC ι": {"biological_target": "T1, PKC ι (Homo sapiens, UniProt P41743)", "T1 construct": "purchased Panvera", "T1 sequence (P41743 1-596)": "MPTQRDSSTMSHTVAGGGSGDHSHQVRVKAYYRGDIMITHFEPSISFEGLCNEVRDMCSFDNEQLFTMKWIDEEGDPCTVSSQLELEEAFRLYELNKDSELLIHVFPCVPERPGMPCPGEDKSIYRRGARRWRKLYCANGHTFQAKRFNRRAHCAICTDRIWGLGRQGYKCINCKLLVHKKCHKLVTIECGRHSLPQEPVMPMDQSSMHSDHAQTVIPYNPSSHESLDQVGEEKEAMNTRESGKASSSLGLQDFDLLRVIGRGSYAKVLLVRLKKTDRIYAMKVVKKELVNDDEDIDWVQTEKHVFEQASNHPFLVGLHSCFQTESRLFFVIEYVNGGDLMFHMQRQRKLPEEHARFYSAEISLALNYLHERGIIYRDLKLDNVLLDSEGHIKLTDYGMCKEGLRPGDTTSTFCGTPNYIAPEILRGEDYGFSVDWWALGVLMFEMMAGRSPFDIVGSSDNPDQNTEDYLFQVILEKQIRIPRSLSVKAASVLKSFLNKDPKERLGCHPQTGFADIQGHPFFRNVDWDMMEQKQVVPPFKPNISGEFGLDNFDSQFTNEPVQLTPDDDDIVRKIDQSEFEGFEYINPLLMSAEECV", "details": "literature values; relative to most potently inhibited isoform (=1); cited from earlier work"}, "PKCε": {"biological_target": "T2, PKCε (Homo sapiens, UniProt Q02156)", "T2 sequence (Q02156 1-737)": "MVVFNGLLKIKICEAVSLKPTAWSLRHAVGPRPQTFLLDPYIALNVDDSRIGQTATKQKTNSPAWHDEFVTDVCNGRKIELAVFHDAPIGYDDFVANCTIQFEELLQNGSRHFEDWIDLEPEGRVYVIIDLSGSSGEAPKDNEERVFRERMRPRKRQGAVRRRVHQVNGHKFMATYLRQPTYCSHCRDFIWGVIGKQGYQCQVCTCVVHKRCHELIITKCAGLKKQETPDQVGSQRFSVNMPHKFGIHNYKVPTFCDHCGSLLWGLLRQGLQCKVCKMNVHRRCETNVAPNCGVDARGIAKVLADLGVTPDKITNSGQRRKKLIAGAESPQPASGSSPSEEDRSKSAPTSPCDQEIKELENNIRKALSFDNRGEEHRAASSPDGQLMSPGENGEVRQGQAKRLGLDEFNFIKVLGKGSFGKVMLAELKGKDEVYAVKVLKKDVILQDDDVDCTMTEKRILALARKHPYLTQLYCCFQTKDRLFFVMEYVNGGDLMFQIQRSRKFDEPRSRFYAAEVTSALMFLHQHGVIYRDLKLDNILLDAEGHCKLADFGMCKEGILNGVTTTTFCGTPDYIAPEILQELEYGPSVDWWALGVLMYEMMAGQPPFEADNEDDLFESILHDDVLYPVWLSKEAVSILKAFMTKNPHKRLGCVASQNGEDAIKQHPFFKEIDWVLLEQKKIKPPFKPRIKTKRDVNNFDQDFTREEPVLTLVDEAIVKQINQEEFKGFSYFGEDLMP", "parameters": "purchased Panvera", "details": "literature values; relative to most potently inhibited isoform (=1); cited from earlier work"}, "PKCζ [1]": {"biological_target": "T3, PKCζ (Homo sapiens, UniProt Q05513)", "T3 sequence (Q05513 1-592)": "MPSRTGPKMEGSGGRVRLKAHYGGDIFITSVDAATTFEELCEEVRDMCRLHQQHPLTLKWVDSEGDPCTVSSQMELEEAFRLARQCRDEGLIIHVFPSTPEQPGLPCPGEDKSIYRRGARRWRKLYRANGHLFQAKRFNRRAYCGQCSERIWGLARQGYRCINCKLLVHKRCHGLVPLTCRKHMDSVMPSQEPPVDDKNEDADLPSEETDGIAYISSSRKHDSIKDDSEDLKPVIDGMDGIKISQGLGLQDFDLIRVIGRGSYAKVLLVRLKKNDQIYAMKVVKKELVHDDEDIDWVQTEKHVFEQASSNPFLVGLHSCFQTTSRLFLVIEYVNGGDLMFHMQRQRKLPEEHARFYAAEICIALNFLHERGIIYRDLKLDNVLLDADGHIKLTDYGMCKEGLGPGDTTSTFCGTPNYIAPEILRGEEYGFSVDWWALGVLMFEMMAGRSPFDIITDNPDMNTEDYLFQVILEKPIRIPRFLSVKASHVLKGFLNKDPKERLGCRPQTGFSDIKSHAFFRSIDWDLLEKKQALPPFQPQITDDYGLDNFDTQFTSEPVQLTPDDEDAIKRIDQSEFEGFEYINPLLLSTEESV", "parameters": "purchased Panvera", "details": "literature values; relative to most potently inhibited isoform (=1); cited from earlier work"}, "PKCζ [2]": {"biological_target": "T3, PKCζ", "assay": "PKC isoform assay, Example 1", "format": "biochemical", "parameters": "purchased Pan Vera", "protocol": "Protein Kinase C Assay (general). The peptides Ac-Ser-Phe-Arg-Arg-Arg-NH2 (for PKC α, β and γ) and acetyl-[…]NH2 (for PKC ε and ζ) were used as substrates.\nPKCε and ζ Assay (IC50 determinations). […] 10 μL enzyme diluted buffer containing 10 mM HEPES (pH 7.5), 10 mM DTT, BSA(3.8 mg/mL), 10 mM EDTA.4Na.2H2O and PKC (20 ng/μL) were added last to this buffer. Reactions were carried out as described above for the Protein Kinase Cα assay."}, "PKCα": {"biological_target": "PKCα (Homo sapiens, UniProt P17252)", "assay": "Protein Kinase Cα radioactive assay, peptide substrate Ac-Ser-Phe-Arg-Arg-Arg-NH2 (Example 1)", "format": "biochemical", "parameters": "purchased Pan Vera", "details": "versus variable peptide substrate", "protocol": "Protein Kinase C Assay (general). The peptides […] (for PKC α, β and γ) and acetyl-[…] (for PKC ε and ζ) were used as substrates. […] Total reaction volume was 50 μL. […] Following an additional 5 min incubation at ambient temperature, 75 μL from each reaction well was transferred into each well of a Unifilter (P81 cellulose phosphate paper) assay plate and washed four times with 0.1% phosphoric acid in water. […] IC50 values were calculated using GraFit (Erithacus Software Limited) and Ki values were calculated using Enzyme Kinetics, SigmaPlot (SPSS Inc.) […] An analogous protocol was employed for peptide 4 versus variable [[…]]. […] An analogous protocol was employed for peptide 4 versus variable [ATP]. Protein Kinase Cα Assay (Ki determination for peptide 6 versus variable […] substrate). […] The reaction was initiated as described above. […] Following an additional 5 min incubation at ambient temperature, 75 μL from each reaction well was transferred into each well of a Unifilter (P81 cellulose phosphate paper) assay plate and washed four times with 0.1% phosphoric acid in water. […] IC50 values were calculated using GraFit (Erithacus Software Limited) and Ki values were calculated using Enzyme Kinetics, SigmaPlot (SPSS Inc.)"}, "PKCη": {"biological_target": "PKCη (Homo sapiens, UniProt P24723)", "sequence (P24723 whole entry, canonical isoform)": "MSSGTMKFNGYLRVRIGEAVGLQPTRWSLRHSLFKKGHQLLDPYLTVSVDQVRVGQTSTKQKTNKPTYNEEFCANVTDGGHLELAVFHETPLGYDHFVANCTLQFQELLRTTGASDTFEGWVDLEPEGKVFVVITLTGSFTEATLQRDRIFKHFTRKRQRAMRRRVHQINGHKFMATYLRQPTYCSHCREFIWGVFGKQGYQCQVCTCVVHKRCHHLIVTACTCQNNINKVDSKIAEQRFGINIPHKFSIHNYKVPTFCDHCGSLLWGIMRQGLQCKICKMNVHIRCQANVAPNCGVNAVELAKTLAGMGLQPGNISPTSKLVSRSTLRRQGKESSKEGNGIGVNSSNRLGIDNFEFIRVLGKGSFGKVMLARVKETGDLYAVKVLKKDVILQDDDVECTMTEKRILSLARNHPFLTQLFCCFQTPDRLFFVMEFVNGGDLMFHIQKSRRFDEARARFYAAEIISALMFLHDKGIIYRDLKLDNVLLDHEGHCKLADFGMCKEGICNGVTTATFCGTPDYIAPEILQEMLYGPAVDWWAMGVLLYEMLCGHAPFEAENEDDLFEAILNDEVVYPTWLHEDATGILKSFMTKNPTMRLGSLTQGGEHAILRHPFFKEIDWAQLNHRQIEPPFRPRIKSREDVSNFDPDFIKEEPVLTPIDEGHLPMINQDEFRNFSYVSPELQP", "parameters": "purchased Panvera", "details": "literature values; relative to most potently inhibited isoform (=1); cited from earlier work"}}, "note": "Starred links: 1 amine or outer side, 2 acyl side, 3 side chain; linkers in the order of their positions; H or OH if unused. Non-standard residues stand in square brackets, D forms with d. Residues, ends and D or L forms follow the SMILES beside them. *: point of attachment. Benzoyl(4-(pyrrol-1-yl)) = O=C(c1ccc(-n2cccc2)cc1)*; Phenylacetyl(3,4-Cl2) = O=C(Cc1ccc(Cl)c(Cl)c1)*; Cysteamide = C(CS[*:3])N[*:1]; Dap = NC[C@H](N)C(=O)O", "data": [{"smiles": "CC(C)C[C@H](NC(=O)[C@H](C)NC(=O)CNC(=O)[C@H](CCCNC(=N)N)NC(=O)[C@H](CCCNC(=N)N)NC(=O)[C@H](C)NC(=O)Cc1ccc(Cl)c(Cl)c1)C(=O)N[C@@H](CCCNC(=N)N)C(=O)N[C@@H](CNC(=O)c1ccc(-n2cccc2)cc1)C(=O)N[C@@H](C)C(=O)NCCS", "note": "[Compound 6] ({Phenylacetyl(3,4-Cl2)}-ARRGALR[Dap](Benzoyl(4-(pyrrol-1-yl)))A-Cysteamide)", "values": [{"measurement": "Fold selectivity (IC50), PKC ι", "setting": "PKC ι", "result": 940, "unit": "fold"}, {"measurement": "Fold selectivity (IC50), PKC ε", "setting": "PKCε", "result": 600, "unit": "fold"}, {"measurement": "Fold selectivity (IC50), PKC ζ", "setting": "PKCζ [1]", "result": 640, "unit": "fold"}, {"measurement": "selectivity for PKCα versus PKCζ", "setting": "PKCζ [2]", "result": 640, "unit": "fold"}, {"measurement": "Ki", "setting": "PKCα", "result": 0.8, "unit": "nM"}, {"measurement": "Fold selectivity (IC50), PKC η", "setting": "PKCη", "result": 1310, "unit": "fold"}]}]}
